The source of these data is US7230013B2, “C10 carbamoyloxy substituted taxane compositions” (Florida State University Research Foundation, Inc., priority 2000, dated 2007).

One data set has as its system HCT116 cells. Kind of data set: In vitro cytotoxicity measured by the cell colony formation assay. Format: cell-based. To be noted: Homo sapiens, HCT-116; read-out: IN VITRO ID 50 (nm) HCT116. Here is the method: In Vitro Cytotoxicity Measured by the Cell Colony Formation Assay
Four hundred cells (HCT116) were plated in 60 mm Petri dishes containing 2.7 mL of medium (modified McCoy's 5a medium containing 10% fetal bovine serum and 100 units/mL penicillin and 100 µg/mL streptomycin). The cells were incubated in a CO2 incubator at 37° C. for 5 h for attachment to the bottom of Petri dishes. The compounds identified in Example 2 were made up fresh in medium at ten times the final concentration, and then 0.3 mL of this stock solution was added to the 2.7 mL of medium in the dish. The cells were then incubated with drugs for 72 h at 37° C. At the end of incubation the drug-containing media were decanted, the dishes were rinsed with 4 mL of Hank's Balance Salt Solution (HBSS), 5 mL of fresh medium was added, and the dishes were returned to the incubator for colony formation. The cell colonies were counted using a colony counter after incubation for 7 days.

`CCNC(=O)O[C@H]1C(=O)[C@@]2(C)C([C@H](OC(=O)c3ccccc3)[C@]3(O)C[C@H](OC(=O)[C@H](O)[C@@H](NC(=O)OC(C)(C)C)c4cccs4)C(C)=C1C3(C)C)[C@]1(OC(C)=O)CO[C@@H]1C[C@@H]2O` (some centres unmarked) (hydrate or solvate) [Compound 2722, 3′-Desphenyl-3′-(2-thienyl)-10-N-ethylcarbamoyl docetaxel] showed a melting point of 166 to 168 °C. As for `CCNC(=O)O[C@H]1C(=O)[C@@]2(C)C([C@H](OC(=O)c3ccccc3)[C@]3(O)C[C@H](OC(=O)[C@H](O)[C@@H](NC(=O)OC(C)(C)C)c4cccs4)C(C)=C1C3(C)C)[C@]1(OC(C)=O)CO[C@@H]1C[C@@H]2O` (some centres unmarked) [Compound 2722, 3′-Desphenyl-3′-(2-thienyl)-10-N-ethylcarbamoyl docetaxel], the IC50 with HCT116 cells was below 1 nM.

Usually melting point stands for the temperature of the solid-liquid transition.
